Test results from patent US6890940B2, “Bis(2-aryl-5-pyridyl) derivatives” (Kowa Co., Ltd., priority 2001, dated 2005).
Counter-ions that a name gives are not always drawn. Like-named read-outs stand apart in the source and are kept apart here. Marks after values point to notes of the source that are not given here.

Tests used:
[1] = Solubility of each compound in water; assay type: physicochemical
Text: Further, the solubility (%) of each compound in water was also estimated.

IgE antibody production = test: Evaluation of IgE antibody production inhibiting activity (mouse spleen B cells stimulated with LPS and IL-4, IgE in supernatant by ELISA); assay type: cell-based; settings: B-cell; mouse (Balb/C) spleen B cells, LPS + mouse IL-4, drug added Day 1, IgE in culture supernatant by ELISA
Protocol: Test 1 (Evaluation of IgE Antibody Production Inhibiting Activity)
From a mouse (Balb/C, male, 8 weeks old), the spleen was enucleated. The spleen was shredded in 10% FBS/RPMI 1640, and was then disintegrated into single cells through a 70-mesh screen. Those single cells were hemolyzed with Gey's solution, and using RPMI 1640 medium/25 mM HEPES/0.3% BSA, a spleen cell suspension (1×10^7 cells/mL) was prepared. After an aliquot of the suspension was reacted with a rat anti-mouse Thy-1.2 monoclonal antibody (product of Cedarlane Laboratories Limited) at 4° C. for 1 hour, centrifugation was conducted. Precipitated cells were suspended again (1×10^7 cells/mL, RPMI/HEPES/BSA). After the suspension was next reacted with a low-cytotoxic rabbit complement (product of Cedarlane Laboratories Limited) at 37° C. for 1 hour, dead cells were removed by specific gravity centrifugation using Lympholyte M (product of Cedarlane Laboratories Limited) so that a B cell fraction was obtained as viable cells. […]
The IgE antibody production inhibiting activity of each drug was calculated by adding the drug Day 1 of the incubation and assaying the quantity of IgE in the culture supernatant by ELISA after the incubation.

[2] = Solubility of each compound in water; assay type: physicochemical; settings: in 1M hydrochloric acid (footnote *)

Compound | Solubility [1] | IC50 (IgE antibody production) | Solubility [2]
COc1cc(-c2ccc(N(C)CCN(C)c3ccc(-c4cc(OC)c(O)c(OC)c4)nc3)cn2)cc(OC)c1O [Example 14, N,N′-Bis[2-(4-hydroxy-3,5-dimethoxyphenyl)-5-pyridyl]-N,N′-dimethylethylenediamine dimethanesulfonate] | 0.1% | 40 nM | –
COc1cc(-c2ccc(N3CCCN(c4ccc(-c5cc(OC)c(OC)c(OC)c5)nc4)CC3)cn2)cc(OC)c1OC [Example 30, 1,4-Bis[2-(3,4,5-trimethoxyphenyl)-5-pyridyl]hexahydro-1,4-diazepine dimethanesulfonate] | 0.1% | 100 nM | –
COc1cc(-c2ccc(N(C)CC(C)(C)CN(C)c3ccc(-c4cc(OC)c(OC)c(OC)c4)nc3)cn2)cc(OC)c1OC [Example 39, N,N′-Bis[2-(3,4,5-trimethoxyphenyl)-5-pyridyl]-N,N′,2,2-tetramethyl-1,3-propanediamine dimethanesulfonate] | 10% | 80 nM | –
COc1cc(-c2ccc(N(C)CC(O)CN(C)c3ccc(-c4cc(OC)c(OC)c(OC)c4)nc3)cn2)cc(OC)c1OC [Example 41, 2-hydroxy-N,N′-bis[2-(3,4,5-trimethoxyphenyl)-5-pyridyl]-N,N′-dimethyl-1,3-propanediamine] | – | 50 nM | 0.1* %
COc1cc(-c2ccc(N(C)CCN(C)CCN(C)c3ccc(-c4cc(OC)c(OC)c(OC)c4)nc3)cn2)cc(OC)c1OC [Example 42, N,N-Bis[N-[2-(3,4,5-trimethoxyphenyl)-5-pyridyl]-N-methyl-2-aminoethyl]methylamine trihydrochloride.] | 10% | 100 nM | –
COc1cc(-c2ccc(N(C)CCCN(C)CCCN(C)c3ccc(-c4cc(OC)c(OC)c(OC)c4)nc3)cn2)cc(OC)c1OC [Example 43, N,N-Bis[N-[2-(3,4,5-trimethoxyphenyl)-5-pyridyl]-N-methyl-3-aminopropyl]methylamine] | – | 100 nM | 10* %
COc1cc(-c2ccc(N3CCN(c4ccc(-c5cc(OC)c(OC)c(OC)c5)nc4)C(CN(C)C)C3)cn2)cc(OC)c1OC (stereo not drawn) [Example 47, 2-(Dimethylamino)methyl-1,4-bis[2-(,3,4,5-trimethoxyphenyl)-5-pyridyl]piperazine trihydrochloride] | 0.1% | 50 nM | –
COc1cc(-c2ccc(N(C)CCCN(C)CCCN(C)c3ccc(-c4cc(OC)c(OCC(F)(F)F)c(OC)c4)nc3)cn2)cc(OC)c1OCC(F)(F)F [Example 57, N,N-Bis[N-[2-(3,5-dimethoxy-4-(2,2,2-trifluoroethoxy)phenyl]-5-pyridyl]-N-methyl-3-aminopropyl]methylamine trihydrochloride] | 1% | 100 nM | –

Other lines, results leading:

Solubility [1] | IC50 (IgE antibody production) | Solubility [2] | Compound
5% | 40 nM | – | COc1cc(-c2ccc(N(C)CCN(C)c3ccc(-c4cc(OC)c(OC)c(OC)c4)nc3)cn2)cc(OC)c1OC [Example 7, N,N′-Bis[2-(3,4,5-trimethoxyphenyl)-5-pyridyl]-N,N′-dimethylethylenediamine dimethanesulfonate]
10% | 30 nM | – | CCN(CCN(CC)c1ccc(-c2cc(OC)c(OC)c(OC)c2)nc1)c1ccc(-c2cc(OC)c(OC)c(OC)c2)nc1 [Example 36, N,N′-Bis[2-(3,4,5-trimethoxyphenyl)-5-pyridyl]-N,N′-diethylethylenediamine dimethanesulfonate]
10% | 100 nM | – | COc1cc(-c2ccc(N(C)CCCN(C)c3ccc(-c4cc(OC)c(OC)c(OC)c4)nc3)cn2)cc(OC)c1OC [Example 37, N,N′-Bis[2-(3,4,5-trimethoxyphenyl)-5-pyridyl]-N,N′-dimethyl-1,3-propanediamine dimethanesulfonate]
10% | 100 nM | – | COc1cc(-c2ccc(NCCOCCNc3ccc(-c4cc(OC)c(OC)c(OC)c4)nc3)cn2)cc(OC)c1OC [Example 44, Bis[N-[2-(3,4,5-trimethoxyphenyl)-5-pyridyl]-2-aminoethyl]ether dimethanesulfonate]
